From patent US20200256880A1, “Neuronal Assay Method Involving Calcineurin” (The Broad Institute, Inc., priority 2017, published 2020)

How the values were obtained:
[1] = tested on: S469 CNAα phosphorylation in rat hippocampal neurons; test: Pharmacological blockade of glutamate receptors and L-type Ca channels, with or without bicuculline; phospho-S469 CNAα at synapsin-marked synapses; type: cell-based; details: baseline and bicuculine-induced; localized to synapses marked by synapsin
Excerpt: (A) Rat hippocampal neurons grown in 96-well plates were stimulated with various plasticity induction paradigms or modulators of neuronal activity levels, fixed and stained for phospho-S469 CNAα and MAP2, and imaged. (B) Quantification of phospho-S469 CNAα levels within MAP2-positive dendrites in wells shown in (A). (C) Quantification of total CNAα levels within MAP2-positive dendrites in wells shown in (A). (D) Rat hippocampal neurons were pretreated with vehicle, DNQX, nifedipine, […], or a combination of all three (with group listed in this order from left to right in panel (D)) prior and after treatment with bicuculline. Neurons were then fixed and stained for phospho-S469 CNAα and synapsin and imaged on a Phenix® (Perkin Elmer) imaging system, a high content imaging system. Shown is the phospho-S469 CNAα levels localized to synapses marked by synapsin. Bic=bicuculine. *≤0.05 compared to control sample, **<0.01, ***<0.001, and ****<0.0001 compared to control sample. For FIG. 7D, statistics were derived by comparing the pharmacological condition with the equivalent control condition, either vehicle or bicucculine treated.
Next, the dependency of S469 CNAα phosphorylation was assessed when neurons were treated by blockade of glutamate receptors and L-type Ca channels using pharmacological blockers. […]

[2] = tested on: phospho-S469 CNAα in rat hippocampal neurons; type: cell-based
[3] = tested on: phosphorylated RII (pRII) peptide; test: Calcineurin phosphatase enzyme assay with pRII peptide; type: biochemical, human; details: recombinant CNAα/CNB1 holoenzyme, pRII substrate, in the presence of CaM
Method: To investigate whether phosphorylation of CNAα Ser469 modifies calcineurin phosphatase activity, a phosphomimetic mutant was generated by replacing S469 with E469 in purified, recombinant human calcineurin. The S469E mutant or wild type of CNAα was co-expressed with CNB1 subunit in E. coli and co-purified. Both mutant and wild type show similar expression level and purity. Their concentrations were quantified by OD280 and CaM titration.
Enzyme activity was then assessed. CN enzymatic parameters for wild-type and S469E mutant proteins were measured using phosphorylated RII (pRII) peptide in a buffer containing 50 mM HEPES (pH=7.0), 1 mM CaCl2, 1 mM MnCl2, 0.5 mM dithiothreitol (DTT), and 0.1 mg/ml bovine serum albumin (BSA). Phosphate product release was monitored at 620 nm on SpectraMax_i3x spectrophotometer (Molecular Devices) with a 96-well plate-based calcineurin phosphatase assay kit (Abcam). Briefly, CN (40 nM) and CM (200 nM) were pre-mixed in 2× assay buffer. The reaction was initiated by addition of 25 μl pRII substrate (in H2O) to equal volume of CN/CaM mixture. The final concentration of pRII used ranged from 12 μM to 750 μM. Reaction was stopped by green quench reagent after 20 minutes. Km was determined using nonlinear regression of the Michaelis-Menten equation.

With `NC(CCCP(=O)(O)O)C(=O)O` (stereo not drawn) [AP5] as the compound, how does the “S469 CNAα phosphorylation” value [1] read?
The value was “most strongly reducing”.

`N[C@H](C(=O)O)c1cc(O)cc(O)c1` [DHPG, dihydroxypheylglycine] was tested. Which “levels of phospho-S469 CNAα within dendrites” value (“levels” below) [2] did it give?
Its value is “significantly and robustly increased”.

`CN[C@H](CC(=O)O)C(=O)O` [NMDA, N-methyl-D-asparatate] was tested. Which “levels” value [2] did it give?
The value was “significantly and robustly increased”.

How did the “levels” value [2] turn out when `NC1=N[C@H](O)[C@H]2[C@H]3O[C@]4(O)O[C@@H]([C@@H](O)[C@@]2(N1)[C@@H]4O)[C@]3(O)CO` [TTX, tetrodotoxin] was run?
The value was “decrease”.

`CC(C)NCC(O)c1ccc(O)c(O)c1` (stereo not drawn) [isoproterenol] was tested. Which “levels” value [2] did it give?
Its value is “significantly and robustly increased”.

For “S469E: phosphomimetic mutant of recombinant human CNAα (S469 replaced with E469) co-expressed with CNB1”, which Km [3] is on record?
Its Km is 256 µM.
